Experimental data from publication PMC10816808, “Enhancement of the Antitumor and Antimetastatic Effect of Topotecan and Normalization of Blood Counts in Mice with Lewis Carcinoma by Tdp1 Inhibitors—New Usnic Acid Derivatives” (International Journal of Molecular Sciences, 2024).

Experiments:
Assay type in all cases: cell-based
[1] = system: A-549; experiment: Topotecan cytotoxicity with Tdp1 inhibitor (MTT), A-549; conditions: Homo sapiens, A549; topotecan alone or in the presence of 5 µM Tdp1 inhibitor
From the text: (§1) Tdp1 inhibitors combined with topotecan dramatically reduce tumor metastasis. Usnic acid derivatives of the enamine and hydrazonothiazole series turned out to be promising sensitizers of the action of topotecan both on cultured cell lines and on mouse tumors in vivo [30, 32]. We studied the ability of the usnic acid derivatives to sensitize the effects of topotecan on the same panel of cell lines. We used two non-cancerous cell lines MRC-5 and HEK293A, including previously obtained HEK293A Tdp1 knockout cells (for compound 7), and cancerous cell lines HeLa, HCT-116, A-549, MCF-7, T98G. We found the most pronounced and reliable sensitizing effect on cancerous cell lines HeLa, HCT-116, A-549, MCF-7 only for compound 7 (Table 2 and Figures S2 and S3).
(§2) Cytotoxicity of the compounds against human tumor cell lines: HeLa (cervical cancer), HCT-116 (colorectal cancer), A-549 (lung cancer), MCF-7 (breast cancer), T98G (glioblastoma), HepG2 (hepatocarcinoma), and nontumor cell lines: MRC-5 (lung fibroblasts) and HEK293A (human embryonic kidney) was examined using the MTT test. HCT-116 and MRC-5 cell lines were provided by the Cell Culture Bank of the State Research Center for Virology and Biotechnology Vector, Novosibirsk, Russia. A-549, MCF-7, and T98G cell lines were obtained from the Russian Cell Culture Collection (RCCC) Institute of Cytology RAS (St. Petersburg, Russia). […]

[2] = system: T98G; experiment: Topotecan cytotoxicity with Tdp1 inhibitor (MTT), T98G; conditions: Homo sapiens, topotecan alone or in the presence of 5 µM Tdp1 inhibitor
From the text: as §1, §2

[3] = system: HCT-116; experiment: Topotecan cytotoxicity with Tdp1 inhibitor (MTT), HCT-116; conditions: Homo sapiens, topotecan alone or in the presence of 5 µM Tdp1 inhibitor
From the text: as §1, §2

[4] = MTT cytotoxicity test, A-549; conditions: human, A-549 cells (lung cancer), read-out: semitoxic concentration (CC50), A-549
From the text: (§3) Compounds 6 and 8 with a bromophenol residue in the enamine fragment have a weak or moderate effect on cell survival (Table 1 and Supplementary Figure S1).
(§4) Cytotoxicity of the compounds against human tumor cell lines: HeLa (cervical cancer), HCT-116 (colorectal cancer), A-549 (lung cancer), MCF-7 (breast cancer), T98G (glioblastoma), HepG2 (hepatocarcinoma), and nontumor cell lines: MRC-5 (lung fibroblasts) and HEK293A (human embryonic kidney) was examined using the MTT test. HCT-116 and MRC-5 cell lines were provided by the Cell Culture Bank of the State Research Center for Virology and Biotechnology Vector, Novosibirsk, Russia. A-549, MCF-7, and T98G cell lines were obtained from the Russian Cell Culture Collection (RCCC) Institute of Cytology RAS (St. Petersburg, Russia). HEK293A cells were purchased (ThermoFisher Scientific, Waltham, MA, USA).
(§5) The cell culture medium DMEM medium (Invitrogen, Carlsbad, CA, USA) contained 10% fetal bovine serum (FBS) (Invitrogen), penicillin (100 units/mL), and streptomycin (100 µg/mL). Cells were seeded into 96-well plates at 5000 cells per well and grown at 37 °C and 5% CO2 in a humid atmosphere. At 30–50% confluence, the tested compounds were added to the medium to a final DMSO content of 1%. Control wells contained 1% DMSO. To determine the cytotoxicity of Tdp1 inhibitors, the cells were treated with compounds with concentrations ranging from 1 to 100 µM for 72 h at 37 °C […]. All measurements were repeated a minimum of twice.

[5] = MTT cytotoxicity test, HEK293A; conditions: human, HEK293A cells (embryonic kidney, nontumor), read-out: semitoxic concentration (CC50), HEK293A
From the text: as §3, §4, §5

[6] = MTT cytotoxicity test, T98G; conditions: human, T98G cells (glioblastoma), read-out: semitoxic concentration (CC50), T98G
From the text: as §3, §4, §5

With `CC[C@@]1(O)C(=O)OCc2c1cc1n(c2=O)Cc2cc3c(CN(C)C)c(O)ccc3nc2-1` [Tpc, topotecan] the CC50 [1] was 1500 nM, the CC50 [2] was 2500 nM and the CC50 [3] was 810 nM.

With `C/C(NCCCc1cc(C(C)(C)C)c(O)c(C(C)(C)C)c1)=C1\C(=O)C=C2Oc3c(-c4csc(N/N=C/c5ccc(Br)cc5)n4)c(O)c(C)c(O)c3[C@@]2(C)C1=O` [Compound 7, (4E)-10-{2-[(E)-2-[(4-bromophenyl)methylidene]hydrazin-1-yl]-1,3-thiazole-4-yl}-4-(1-{[3-(3,5-di-tret-butyl-4-hydroxyhenyl)propyl]amino}ethylidene)-11,13-dihydroxy-2,12-dimethyl-8-oxatricyclo [7.4.0.02,7]trideca-1(13),6,9,11-tetraen-3,5-dione] the CC50 at 72 h [4] was > 100000 nM, the CC50 at 72 h [5] was > 100000 nM and the CC50 at 72 h [6] was > 100000 nM.
